# Assay results published in US12479847B2 (DANA-FARBER CANCER INSTITUTE, INC., priority 2019, dated 2025).
# Biological target: human LRRK2 kinase (Homo sapiens, UniProt Q5S007)
# Settings: LRRK2, ADP-Glo, ATP 10 μM, 60 minutes at 25° C.
# Description: Assay kits from Promega™ Corporation were used according to instructions and adapted as outlined herein. […] The kinase reaction was performed with kinase reaction buffer (40 mM Tris base pH 7.4, 20 mM MgCl2, 0.5 mM dithiothreitol), 0.1 mg/ml bovine serum albumin, distilled H2O). […] In brief, the kinase reactions were started by addition of ATP to the kinase reaction mixture. The resulting mixture was incubated for 60 minutes at 25° C., and then stopped by adding 5 μl of ADP-Glo™ reagent. After incubation at room temperature in the dark for 40 minutes, 10 μl of kinase detection reagent was added per well, and the mixture was incubated for 10 minutes. […] Positive and negative controls were performed in 0.5% DMSO in the presence and absence of LRRK2 kinases. Curve fitting and data presentations were performed using GraphPad Prism version 5.0 (GraphPad Software, Inc.).
# human LRRK2 kinase, sequence (Q5S007 whole entry): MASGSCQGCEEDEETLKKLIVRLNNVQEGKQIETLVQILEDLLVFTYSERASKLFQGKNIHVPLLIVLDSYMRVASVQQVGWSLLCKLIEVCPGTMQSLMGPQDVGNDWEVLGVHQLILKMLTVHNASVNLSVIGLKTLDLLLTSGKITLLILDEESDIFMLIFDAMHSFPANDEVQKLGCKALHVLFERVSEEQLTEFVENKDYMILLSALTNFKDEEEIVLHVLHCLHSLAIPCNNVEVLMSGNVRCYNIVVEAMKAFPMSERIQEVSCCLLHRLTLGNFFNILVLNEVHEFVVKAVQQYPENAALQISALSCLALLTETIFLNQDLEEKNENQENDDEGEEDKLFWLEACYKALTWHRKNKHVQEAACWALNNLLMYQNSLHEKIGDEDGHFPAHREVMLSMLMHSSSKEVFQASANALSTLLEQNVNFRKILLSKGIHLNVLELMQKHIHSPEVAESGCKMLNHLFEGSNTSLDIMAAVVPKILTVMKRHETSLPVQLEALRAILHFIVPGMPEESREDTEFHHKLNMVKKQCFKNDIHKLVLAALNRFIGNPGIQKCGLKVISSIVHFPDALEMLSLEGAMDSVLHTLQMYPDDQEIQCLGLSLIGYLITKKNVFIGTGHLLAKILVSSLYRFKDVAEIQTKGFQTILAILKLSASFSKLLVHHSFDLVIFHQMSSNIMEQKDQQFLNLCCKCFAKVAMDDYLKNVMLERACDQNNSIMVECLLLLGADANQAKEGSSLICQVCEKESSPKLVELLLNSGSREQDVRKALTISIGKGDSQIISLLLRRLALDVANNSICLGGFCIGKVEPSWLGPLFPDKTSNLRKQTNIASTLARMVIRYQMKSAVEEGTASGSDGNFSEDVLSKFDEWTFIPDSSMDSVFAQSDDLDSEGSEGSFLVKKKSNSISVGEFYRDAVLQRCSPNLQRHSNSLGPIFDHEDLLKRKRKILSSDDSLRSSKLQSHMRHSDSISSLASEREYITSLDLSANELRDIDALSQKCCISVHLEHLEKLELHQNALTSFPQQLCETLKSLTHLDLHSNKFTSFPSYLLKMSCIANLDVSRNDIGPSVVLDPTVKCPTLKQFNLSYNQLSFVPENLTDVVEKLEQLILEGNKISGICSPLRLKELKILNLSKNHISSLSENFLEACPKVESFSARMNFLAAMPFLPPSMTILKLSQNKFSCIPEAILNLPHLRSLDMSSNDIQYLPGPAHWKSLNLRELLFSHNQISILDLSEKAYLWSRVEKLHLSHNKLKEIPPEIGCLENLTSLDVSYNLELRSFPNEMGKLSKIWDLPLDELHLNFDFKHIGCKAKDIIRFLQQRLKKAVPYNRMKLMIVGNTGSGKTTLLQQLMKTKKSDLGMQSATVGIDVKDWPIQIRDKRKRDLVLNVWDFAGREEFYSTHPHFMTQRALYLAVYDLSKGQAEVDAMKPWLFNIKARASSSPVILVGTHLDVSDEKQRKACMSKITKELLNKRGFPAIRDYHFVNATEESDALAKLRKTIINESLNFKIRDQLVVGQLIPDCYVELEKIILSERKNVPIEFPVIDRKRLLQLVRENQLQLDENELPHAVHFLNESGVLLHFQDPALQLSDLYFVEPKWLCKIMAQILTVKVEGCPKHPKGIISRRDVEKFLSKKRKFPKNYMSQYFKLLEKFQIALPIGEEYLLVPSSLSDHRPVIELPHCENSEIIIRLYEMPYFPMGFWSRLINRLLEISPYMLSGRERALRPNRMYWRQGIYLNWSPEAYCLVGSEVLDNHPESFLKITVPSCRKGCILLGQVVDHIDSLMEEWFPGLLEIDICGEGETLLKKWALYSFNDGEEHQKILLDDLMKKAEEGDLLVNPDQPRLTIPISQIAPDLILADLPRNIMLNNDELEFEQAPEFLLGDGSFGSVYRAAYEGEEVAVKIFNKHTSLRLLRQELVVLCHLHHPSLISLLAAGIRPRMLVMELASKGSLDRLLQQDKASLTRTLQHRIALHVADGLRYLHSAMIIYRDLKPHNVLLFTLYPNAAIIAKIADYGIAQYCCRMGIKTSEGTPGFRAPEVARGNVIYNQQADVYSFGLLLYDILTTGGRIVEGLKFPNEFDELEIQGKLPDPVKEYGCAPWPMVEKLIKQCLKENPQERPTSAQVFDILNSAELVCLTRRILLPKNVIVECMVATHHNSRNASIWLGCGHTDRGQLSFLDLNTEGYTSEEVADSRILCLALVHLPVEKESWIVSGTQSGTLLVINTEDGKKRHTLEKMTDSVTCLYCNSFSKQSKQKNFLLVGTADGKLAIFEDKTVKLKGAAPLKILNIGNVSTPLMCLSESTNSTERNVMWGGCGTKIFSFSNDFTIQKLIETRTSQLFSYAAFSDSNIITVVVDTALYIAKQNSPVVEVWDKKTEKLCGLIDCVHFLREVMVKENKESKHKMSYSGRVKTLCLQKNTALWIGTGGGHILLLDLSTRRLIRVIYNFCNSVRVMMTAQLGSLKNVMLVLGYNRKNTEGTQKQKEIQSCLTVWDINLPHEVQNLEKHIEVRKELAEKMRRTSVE
row,Compound,IC50 [nM]
1,"COc1cc(S(=O)(=O)N2CCOCC2)ccc1Nc1nc(NCC2CCCC2)c2c(Cl)c[nH]c2n1 [Compound 45, 5-chloro-N4-(cyclopentylmethyl)-N2-(2-methoxy-4-(morpholinosulfonyl)phenyl)-7H-pyrrolo[2,3-d]pyrimidine-2,4-diamine]",100 to 1000
2,"COc1cc(S(C)(=O)=O)ccc1Nc1nc(NCC(C)C)c2c(Cl)c[nH]c2n1 [Compound 32, 5-chloro-N4-isobutyl-N2-(2-methoxy-4-(methylsulfonyl)phenyl)-7H-pyrrolo[2,3-d]pyrimidine-2,4-diamine]",100 to 1000
3,"CCNc1nc(Nc2ccc(C(=O)N3CCC(N4CCOCC4)CC3)c3c2OCCO3)nc2[nH]cc(Cl)c12 [Compound 1, (8-((5-chloro-4-(ethylamino)-7H-pyrrolo[2,3-d]pyrimidin-2-yl)amino)-2,3-dihydrobenzo[b][1,4]dioxin-5-yl)(4-morpholinopiperidin-1-yl)methanone]",< 10
4,"CCCNc1nc(Nc2ccc(S(=O)(=O)N3CCOCC3)cc2OC)nc2[nH]cc(Cl)c12 [Compound 18, 5-chloro-N2-(2-methoxy-4-(morpholinosulfonyl)phenyl)-N4-propyl-7H-pyrrolo[2,3-d]pyrimidine-2,4-diamine]",100 to 1000
5,"CNc1nc(Nc2ccc(C(=O)N3CCC(N4CCOCC4)CC3)c3c2OCCO3)nc2[nH]cc(Cl)c12 [Compound 10, (8-((5-chloro-4-(methylamino)-7H-pyrrolo[2,3-d]pyrimidin-2-yl)amino)-2,3-dihydrobenzo[b][1,4]dioxin-5-yl)(4-morpholinopiperidin-1-yl)methanone]",< 10
6,"CCC(C)Nc1nc(Nc2ccc(S(=O)(=O)N3CCC(N4CCOCC4)CC3)cc2OC)nc2[nH]cc(Cl)c12 (stereo in doubt) [Compound 52, (S)—N4-(sec-butyl)-5-chloro-N2-(2-methoxy-4-((4-morpholinopiperidin-1-yl)sulfonyl)phenyl)-7H-pyrrolo[2,3-d]pyrimidine-2,4-diamine]",10 to 100
7,"COCCNc1nc(Nc2ccc(S(=O)(=O)N3CCOCC3)cc2OC)nc2[nH]cc(Cl)c12 [Compound 21, 5-chloro-N2-(2-methoxy-4-(morpholinosulfonyl)phenyl)-N4-(2-methoxyethyl)-7H-pyrrolo[2,3-d]pyrimidine-2,4-diamine]",< 10
8,"COc1cc(S(=O)(=O)N2CCC(N3CCOCC3)CC2)ccc1Nc1nc(NCCS(C)(=O)=O)c2c(Cl)c[nH]c2n1 [Compound 69, 5-chloro-N2-(2-methoxy-4-((4-morpholinopiperidin-1-yl)sulfonyl)phenyl)-N4-(2-(methylsulfonyl)ethyl)-7H-pyrrolo[2,3-d]pyrimidine-2,4-diamine]",< 10
9,"CNc1nc(Nc2ccc(P3(=O)CCN(C4CC4)CC3)cc2OC)nc2[nH]cc(Cl)c12 [Compound 85, 4-(4-((5-chloro-4-(methylamino)-7H-pyrrolo[2,3-d]pyrimidin-2-yl)amino)-3-methoxyphenyl)-1-cyclopropyl-1,4-azaphosphinane 4-oxide]",10 to 100
10,"CC[C@@H](C)Nc1nc(Nc2ccc(S(C)(=O)=O)cc2OC)nc2[nH]cc(Cl)c12 [Compound 49, (R)—N4-(sec-butyl)-5-chloro-N2-(2-methoxy-4-(methylsulfonyl)phenyl)-7H-pyrrolo[2,3-d]pyrimidine-2,4-diamine]",10 to 100
11,"COc1cc(S(=O)(=O)N2CCC(N3CCOCC3)CC2)ccc1Nc1nc(NCC2CCCC2)c2c(Cl)c[nH]c2n1 [Compound 67, 5-chloro-N4-(cyclopentylmethyl)-N2-(2-methoxy-4-((4-morpholinopiperidin-1-yl)sulfonyl)phenyl)-7H-pyrrolo[2,3-d]pyrimidine-2,4-diamine]",100 to 1000
12,"COc1cc(S(C)(=O)=O)ccc1Nc1nc(NCC2CCC2)c2c(Cl)c[nH]c2n1 [Compound 66, 5-chloro-N4-(cyclobutylmethyl)-N2-(2-methoxy-4-(methylsulfonyl)phenyl)-7H-pyrrolo[2,3-d]pyrimidine-2,4-diamine]",100 to 1000
13,"CC[C@@H](C)Nc1nc(Nc2ccc(C(=O)N3CCOCC3)c3c2OCCO3)nc2[nH]cc(Cl)c12 [Compound 50, (R)-(8-((4-(sec-butylamino)-5-chloro-7H-pyrrolo[2,3-d]pyrimidin-2-yl)amino)-2,3-dihydrobenzo[b][1,4]dioxin-5-yl)(morpholino)methanone]",< 10
14,"CNc1nc(Nc2ccc(S(=O)(=O)N3CCOCC3)cc2OC)nc2[nH]cc(Cl)c12 [Compound 11, 5-chloro-N2-(2-methoxy-4-(morpholinosulfonyl)phenyl)-N4-methyl-7H-pyrrolo[2,3-d]pyrimidine-2,4-diamine]",< 10
15,"COc1cc(S(C)(=O)=O)ccc1Nc1nc(N[C@H]2CCOC2)c2c(Cl)c[nH]c2n1 [Compound 94, (S)-5-chloro-N2-(2-methoxy-4-(methylsulfonyl)phenyl)-N4-(tetrahydrofuran-3-yl)-7H-pyrrolo[2,3-d]pyrimidine-2,4-diamine]",< 10
16,"O=C(c1ccc(Nc2nc(NCC3CCCC3)c3c(Cl)c[nH]c3n2)c2c1OCCO2)N1CCOCC1 [Compound 46, (8-((5-chloro-4-((cyclopentylmethyl)amino)-7H-pyrrolo[2,3-d]pyrimidin-2-yl)amino)-2,3-dihydrobenzo[b][1,4]dioxin-5-yl)(morpholino)methanone]",100 to 1000

row,Compound,IC50 [nM]
1,"CCCCNc1nc(Nc2ccc(C(=O)N3CCOCC3)c3c2OCCO3)nc2[nH]cc(Cl)c12 [Compound 74, (8-((4-(butylamino)-5-chloro-7H-pyrrolo[2,3-d]pyrimidin-2-yl)amino)-2,3-dihydrobenzo[b][1,4]dioxin-5-yl)(morpholino)methanone]",10 to 100
2,"COc1cc(S(C)(=O)=O)ccc1Nc1nc(NC2CCCC2)c2c(Cl)c[nH]c2n1 [Compound 57, 5-chloro-N4-cyclopentyl-N2-(2-methoxy-4-(methylsulfonyl)phenyl)-7H-pyrrolo[2,3-d]pyrimidine-2,4-diamine]",100 to 1000
3,CC(C)Nc1nc(Nc2ccc(C(=O)N3CCC(N4CCOCC4)CC3)c3c2OCCO3)nc2[nH]cc(Cl)c12 [Compound 88],10 to 100
4,"CC[C@@H](C)Nc1nc(Nc2ccc(S(=O)(=O)N3CCOCC3)cc2OC)nc2[nH]cc(Cl)c12 [Compound 47, (R)—N4-(sec-butyl)-5-chloro-N2-(2-methoxy-4-(morpholinosulfonyl)phenyl)-7H-pyrrolo[2,3-d]pyrimidine-2,4-diamine]",100 to 1000
5,"COc1cc(P2(=O)CCN(C(C)=O)CC2)ccc1Nc1nc(NC(C)C)c2c(Cl)c[nH]c2n1 [Compound 89, 1-(4-(4-((5-chloro-4-(isopropylamino)-7H-pyrrolo[2,3-d]pyrimidin-2-yl)amino)-3-methoxyphenyl)-4-oxido-1,4-azaphosphinan-1-yl)ethan-1-one]",10 to 100
6,"COc1cc(S(=O)(=O)N2CCC(N3CCOCC3)CC2)ccc1Nc1nc(N[C@H]2CCOC2)c2c(Cl)c[nH]c2n1 [Compound 61, (S)-5-chloro-N2-(2-methoxy-4-((4-morpholinopiperidin-1-yl)sulfonyl)phenyl)-N4-(tetrahydrofuran-3-yl)-7H-pyrrolo[2,3-d]pyrimidine-2,4-diamine]",< 10
7,"CCNc1nc(Nc2ccc(C(=O)N3CCOCC3)c3c2OCCO3)nc2[nH]cc(Cl)c12 [Compound 17, (8-((5-chloro-4-(ethylamino)-7H-pyrrolo[2,3-d]pyrimidin-2-yl)amino)-2,3-dihydrobenzo[b][1,4]dioxin-5-yl)(morpholino)methanone]",< 10
8,"COc1cc(S(=O)(=O)N2CCC(N3CCOCC3)CC2)ccc1Nc1nc(NC(C)C)c2c(Cl)c[nH]c2n1 [Compound 87, 5-chloro-N4-isopropyl-N2-(2-methoxy-4-((4-morpholinopiperidin-1-yl)sulfonyl)phenyl)-7H-pyrrolo[2,3-d]pyrimidine-2,4-diamine]",100 to 1000
9,"CCCCNc1nc(Nc2ccc(S(C)(=O)=O)cc2OC)nc2[nH]cc(Cl)c12 [Compound 73, N4-butyl-5-chloro-N2-(2-methoxy-4-(methylsulfonyl)phenyl)-7H-pyrrolo[2,3-d]pyrimidine-2,4-diamine]",10 to 100
10,"O=C(c1ccc(Nc2nc(NC3CCCCC3)c3c(Cl)c[nH]c3n2)c2c1CCO2)N1CCOCC1 [Compound 83, (7-((5-chloro-4-(cyclohexylamino)-7H-pyrrolo[2,3-d]pyrimidin-2-yl)amino)-2,3-dihydrobenzofuran-4-yl)(morpholino)methanone]",100 to 1000
11,"COc1cc(S(=O)(=O)N2CCOCC2)ccc1Nc1nc(NCC(C)C)c2c(Cl)c[nH]c2n1 [Compound 31, 5-chloro-N4-isobutyl-N2-(2-methoxy-4-(morpholinosulfonyl)phenyl)-7H-pyrrolo[2,3-d]pyrimidine-2,4-diamine]",100 to 1000
12,"COc1cc(P2(=O)CCN(C(C)=O)CC2)ccc1Nc1nc(NCC(C)C)c2c(Cl)c[nH]c2n1 [Compound 97, 1-(4-(4-((5-chloro-4-(isobutylamino)-7H-pyrrolo[2,3-d]pyrimidin-2-yl)amino)-3-methoxyphenyl)-4-oxido-1,4-azaphosphinan-1-yl)ethan-1-one]",10 to 100
13,"O=C(c1ccc(Nc2nc(NC3CC3)c3c(Cl)c[nH]c3n2)c2c1OCCO2)N1CCOCC1 [Compound 27, (8-((5-chloro-4-(cyclopropylamino)-7H-pyrrolo[2,3-d]pyrimidin-2-yl)amino)-2,3-dihydrobenzo[b][1,4]dioxin-5-yl)(morpholino)methanone]",< 10
14,"CNc1nc(Nc2ccc(S(C)(=O)=O)cc2OC)nc2[nH]cc(Cl)c12 [Compound 13, 5-chloro-N2-(2-methoxy-4-(methylsulfonyl)phenyl)-N4-methyl-7H-pyrrolo[2,3-d]pyrimidine-2,4-diamine]",< 10
15,"CCNc1nc(Nc2ccc(S(=O)(=O)N3CCC(N4CCOCC4)CC3)cc2OC)nc2[nH]cc(Cl)c12 [Compound 15, 5-chloro-N4-ethyl-N2-(2-methoxy-4-((4-morpholinopiperidin-1-yl)sulfonyl)phenyl)-7H-pyrrolo[2,3-d]pyrimidine-2,4-diamine]",< 10
16,"CC[C@@H](C)Nc1nc(Nc2ccc(S(=O)(=O)N3CCC(N4CCOCC4)CC3)cc2OC)nc2[nH]cc(Cl)c12 [Compound 48, (R)—N4-(sec-butyl)-5-chloro-N2-(2-methoxy-4-((4-morpholinopiperidin-1-yl)sulfonyl)phenyl)-7H-pyrrolo[2,3-d]pyrimidine-2,4-diamine]",100 to 1000
